According to patent publication US20230279020A9, “CARM1 INHIBITORS AND USES THEREOF” (Epizyme, Inc., priority 2013, published 2023):

These compounds were tested against Human CARM1 (PRMT4) (Homo sapiens (Human), UniProt Q86X55) (assay: CARM1 enzyme assay on peptide substrate (3H-SAM Flashplate)). Conditions: Biochemical potencies, classification codes; read-out: Biochem IC50.
Sequence of Human CARM1 (PRMT4) (Q86X55 other isoform, or with tags, fused parts or gaps isoform Q86X55-1): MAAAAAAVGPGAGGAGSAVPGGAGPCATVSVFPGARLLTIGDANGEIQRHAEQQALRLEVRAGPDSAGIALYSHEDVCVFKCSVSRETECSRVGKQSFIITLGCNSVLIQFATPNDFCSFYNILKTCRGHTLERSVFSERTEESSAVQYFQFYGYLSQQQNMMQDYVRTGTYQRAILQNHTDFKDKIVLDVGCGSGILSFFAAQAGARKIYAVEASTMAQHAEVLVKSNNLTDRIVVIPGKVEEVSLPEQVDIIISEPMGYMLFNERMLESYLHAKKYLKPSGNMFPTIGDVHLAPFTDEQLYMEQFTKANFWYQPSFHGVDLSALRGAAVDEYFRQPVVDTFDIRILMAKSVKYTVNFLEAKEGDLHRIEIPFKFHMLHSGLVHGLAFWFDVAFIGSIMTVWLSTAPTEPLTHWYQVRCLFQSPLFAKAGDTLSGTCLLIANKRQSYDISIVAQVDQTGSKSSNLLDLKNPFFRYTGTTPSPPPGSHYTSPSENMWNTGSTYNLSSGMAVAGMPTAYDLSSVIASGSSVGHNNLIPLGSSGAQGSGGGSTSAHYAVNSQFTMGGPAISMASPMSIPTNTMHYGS
In the case of `CNCC(O)COc1cccc(-c2nc(N[C@@H]3CCOC3)c(C)c(N3CCC3)n2)c1` (stereo partly shown) [Example 377-1a], the IC50 is reported as < 100 nM.
With `CNCC(O)COc1cccc(-c2nc(-c3cnc(CO)n3C)cc(N(C)C3CCOCC3)n2)c1` (stereo not shown) [Example 572-1a] the IC50 was < 100 nM.
For `CNCC(O)COc1cccc(-c2nc(-c3c(C)noc3C)c(C)c(N3CCN(C(=O)OCC(F)F)CC3)n2)c1` (stereo not shown) [Example 161-1a], the IC50 was < 100 nM.
`CNC[C@@H](O)COc1ccc(Cl)c(-c2nc(-c3c(C)noc3C)c(C)c(N3Cc4cnc(C(F)(F)F)nc4C3)n2)c1` [Example 263-3] was tested, and the IC50 was < 100 nM.
`CNC[C@@H](O)COc1ccc(F)c(-c2nc(N[C@H]3CCN(C4CC4)C[C@H]3F)c(C)c(-c3c(C)noc3C)n2)c1` [Example 98-3] was tested, and the IC50 was < 100 nM.
With `CNCC(O)COc1cccc(-c2nc(-c3c(C)noc3C)cc(N(C)c3cnc(OC)nc3)n2)c1` (stereo not shown) [Example 51-1a] the IC50 was < 100 nM.
For `CNCC(O)COc1cccc(-c2nc(-c3ccncc3)cc(N(C)C3CCOCC3)n2)c1` (stereo not shown) [Example 1-1], the IC50 was < 100 nM.
With `CNCC(O)COc1cccc(-c2nc(-c3nc(C)cs3)cc(N(C)C3CCOCC3)n2)c1` (stereo not shown) [Example 624-1a] the IC50 was < 100 nM.
With `CNC[C@@H](O)COc1ccc(Cl)c(-c2nc(-c3c(C)noc3C)c(C)c(N3CC4(CCN(C(=O)OC)C4)C3)n2)c1` [Example 175-3] the IC50 was < 100 nM.
For `Cc1noc(C)c1-c1cc(NC2CCOCC2)nc(-c2cccc(OC[C@@H](O)CN)c2)n1` [Example 15-1a], the IC50 was < 100 nM.
`CNCC(O)COc1cccc(-c2nc(-c3c(C)noc3C)c(C)c(N3CC[C@H](N(C)C(C)=O)C3)n2)c1` (stereo partly shown) [Example 71-1a] was tested, and the IC50 was < 100 nM.
`CNCC(O)COc1cccc(-c2nc(-c3ccncc3)c(C)c(N(C)C3CCOCC3)n2)c1` (stereo not shown) [Example 537-1a] was tested, and the IC50 was < 100 nM.
`CCOC(=O)N1CC(Nc2nc(-c3cccc(OCC(O)CNC)c3)nc(-c3c(C)noc3C)c2C)C1` (stereo not shown) [Example 238-1a] was tested, and the IC50 was < 100 nM.
In the case of `CCc1onc(C)c1-c1nc(-c2cccc(OCC(O)CNC)c2)nc(NC2CCOCC2)c1C` (stereo not shown) [Example 276-1a], the IC50 is reported as < 100 nM.
`CNCC(O)COc1cccc(-c2nc(N[C@@H]3CCOC3)c(C)c(N3CC4CCC(C3)O4)n2)c1` (stereo partly shown) [Example 412-1a] was tested, and the IC50 was < 100 nM.
`CC[C@@H]1CN(c2nc(-c3cccc(OCC(O)CNC)c3)nc(-c3c(C)noc3C)c2C)CCN1S(C)(=O)=O` (stereo partly shown) [Example 153-1a] was tested, and the IC50 was < 100 nM.
`CNCC(O)COc1cccc(-c2nc(NC3CCCN(C(=O)C4CC4)C3)c(C)c(-c3c(C)noc3C)n2)c1` (stereo not shown) [Example 247-1a] was tested, and the IC50 was < 100 nM.
In the case of `CNCC(O)COc1cccc(-c2nc(N[C@H]3CCOC[C@@H]3F)c(C)c(-c3c(C)noc3C)n2)c1` (stereo partly shown) [Example 279-1a], the IC50 is reported as < 100 nM.
`CNC[C@@H](O)COc1ccc(Cl)c(-c2nc(-c3c(C)noc3C)c(C)c(N3CCC4(CCN(C5CC5)C4)C3)n2)c1` (stereo partly shown) [Example 138-3] was tested, and the IC50 was < 100 nM.
`Cc1noc(C)c1-c1cc(NC2CCOCC2)nc(-c2cccc(OC[C@H](O)CN)c2)n1` [Example 16-1a] was tested, and the IC50 was < 100 nM.
For `CNCC(O)COc1cccc(-c2nc(Nc3nnc(C4CC4)s3)c(C)c(-c3c(C)noc3C)n2)c1` (stereo not shown) [Example 217-1a], the IC50 was < 100 nM.
`CNCC(O)COc1cccc(-c2nc(NC3CCOCC3)c(F)c(-c3c(C)noc3C)n2)c1` (stereo not shown) [Example 96-1a] was tested, and the IC50 was < 100 nM.
In the case of `CNCC(O)COc1cccc(-c2nc(NC3CCN(C(=O)C4CC4)CC3)c(C)c(-c3c(C)noc3C)n2)c1` (stereo not shown) [Example 245-1a], the IC50 is reported as < 100 nM.
With `CNCC(O)COc1cccc(-c2nc(-c3cnc4nccn4c3)cc(N(C)C3CCOCC3)n2)c1` (stereo not shown) [Example 620-1a] the IC50 was < 100 nM.
`CNC[C@@H](O)COc1cccc(-c2nc(-c3cnc4cnccn34)cc(N(C)C3CCOCC3)n2)c1` [Example 507-1a] was tested, and the IC50 was < 100 nM.
`CNC[C@H](O)COc1ccc(Cl)c(-c2nc(NCC3COCCO3)c(C)c(-c3c(C)noc3C)n2)c1` (stereo partly shown) [Example 96-3] was tested, and the IC50 was < 100 nM.
With `CNCC(O)COc1cccc(-c2nc(NC3CCN(C4COC4)CC3)c(C)c(-c3c(C)noc3C)n2)c1` (stereo not shown) [Example 263-1a] the IC50 was < 100 nM.
With `CNCC(O)COc1cccc(-c2nc(N3CCOCC3)cc(N(C)C3CCOCC3)n2)c1` (stereo not shown) [Example 36-1] the IC50 was < 100 nM.
`CNC[C@@H](O)COc1ccc(Cl)c(-c2nc(NC3CC(F)(F)C3)c(C)c(-c3c(C)noc3C)n2)c1` [Example 189-3] was tested, and the IC50 was < 100 nM.
`CNCC(O)COc1cccc(-c2nc(-c3c(C)noc3C)cc(N3CCN(S(C)(=O)=O)[C@@H](C)C3)n2)c1` (stereo partly shown) [Example 92-1a] was tested, and the IC50 was < 100 nM.
In the case of `CNCC(O)COc1cccc(-c2nc(N[C@@H]3CCOC3)c(Cl)c(N3CCOCC3)n2)c1` (stereo partly shown) [Example 376-1a], the IC50 is reported as < 100 nM.
With `CNC[C@@H](O)COc1ccc(Cl)c(-c2nc(-c3c(C)noc3C)c(C)c(N3Cc4[nH]nc(C)c4C3)n2)c1` [Example 224-3] the IC50 was < 100 nM.
With `CNC[C@@H](O)COc1ccc(Cl)c(-c2nc(NC3CCOCC3)c(C)c(-c3c(C)noc3C)n2)c1` [Example 127-3] the IC50 was < 100 nM.
`CNCC(O)COc1cccc(-c2nc(N[C@@H]3CCOC3)c(C)c(N3CCN(C)[C@H](C)C3)n2)c1` (stereo partly shown) [Example 463-1a] was tested, and the IC50 was < 100 nM.
For `CNCC(O)COc1cccc(-c2nc(N[C@@H]3CCC[C@@H]3O)c(C)c(-c3c(C)noc3C)n2)c1` (stereo partly shown) [Example 250-1a], the IC50 was < 100 nM.
In the case of `CCS(=O)(=O)N1CCC(CNc2nc(-c3cccc(OCC(O)CNC)c3)nc(-c3c(C)noc3C)c2C)CC1` (stereo not shown) [Example 192-1a], the IC50 is reported as < 100 nM.
`CNCC(O)COc1cccc(-c2nc(-c3c(C)noc3C)c(C)c(N3CC(NC(=O)N(C)C)C3)n2)c1` (stereo not shown) [Example 13-3] was tested, and the IC50 was < 100 nM.
For `CNCC(O)COc1cccc(-c2nc(N[C@@H]3CCNC[C@@H]3F)c(C)c(-c3c(C)noc3C)n2)c1` (stereo partly shown) [Example 224-1a], the IC50 was < 100 nM.
For `CNC[C@@H](O)COc1ccc(Cl)c(-c2nc(-c3c(C)noc3C)c(C)c(N3CC4(CCCOC4)C3)n2)c1` [Example 119-3], the IC50 was < 100 nM.
In the case of `CNC[C@@H](O)COc1ccc(Cl)c(-c2nc(NC3CC4(C3)CN(C(=O)OC)C4)c(C)c(-c3c(C)noc3C)n2)c1` [Example 146-3], the IC50 is reported as < 100 nM.
For `CNCC(O)COc1cccc(-c2nc(N3CCN(C)[C@@H](C)C3)cc(N(C)C3CCOCC3)n2)c1` (stereo partly shown) [Example 502-1a], the IC50 was < 100 nM.
`CNC[C@@H](O)COc1ccc(C(F)(F)F)c(-c2nc(-c3c(C)noc3C)c(C)c(N3Cc4cncnc4C3)n2)c1` [Example 247-3] was tested, and the IC50 was < 100 nM.
In the case of `CNCC(O)COc1cccc(-c2nc(N[C@H]3COC(=O)C3)c(C)c(-c3c(C)noc3C)n2)c1` (stereo partly shown) [Example 267-1a], the IC50 is reported as < 100 nM.
For `CNC[C@@H](O)COc1cccc(-c2nc(NC3CCOCC3)cc(-c3c(C)noc3C)n2)c1` [Example 18-1a], the IC50 was < 100 nM.
With `CNCC(O)COc1cccc(-c2nc(-c3cnn(CC(C)C)c3)cc(N(C)C3CCOCC3)n2)c1` (stereo not shown) [Example 516-1a] the IC50 was < 100 nM.
`CNCC(O)COc1cccc(-c2nc(OCC3CCOCC3)c(C)c(-c3c(C)noc3C)n2)c1` (stereo not shown) [Example 182-1a] was tested, and the IC50 was < 100 nM.
With `CNC[C@H](O)COc1ccc(Cl)c(-c2nc(N[C@H]3CCN(C(=O)OC)[C@H](C)C3)c(C)c(-c3c(C)noc3C)n2)c1` [Example 103-3] the IC50 was < 100 nM.
With `CNCC(O)COc1cccc(-c2nc(N[C@H]3C[C@H](O)C3)c(C)c(-c3c(C)noc3C)n2)c1` (stereo partly shown) [Example 254-1a] the IC50 was < 100 nM.
With `CNCC(O)COc1cccc(-c2nc(NC3(C)CCOCC3)c(C)c(-c3c(C)noc3C)n2)c1` (stereo not shown) [Example 101-1a] the IC50 was < 100 nM.
With `CNCC(O)COc1cccc(-c2nc(C(=O)NCC3CCOCC3)cc(N(C)C3CCOCC3)n2)c1` (stereo not shown) [Example 548-1a] the IC50 was < 100 nM.
With `CNC[C@@H](O)COc1ccc(Cl)c(-c2nc(N[C@H]3CCN(C4CC4)C[C@H]3F)c(C)c(-c3c(C)noc3C)n2)c1` [Example 44-3] the IC50 was < 100 nM.
In the case of `CNCC(O)COc1cccc(-c2nc(N[C@@H]3CCOC3)c(C)c(N3CCN(CC(F)F)CC3)n2)c1` (stereo partly shown) [Example 458-1a], the IC50 is reported as < 100 nM.
With `CNCC(O)COc1cccc(-c2nc(-c3c(C)noc3C)c(C)c(N3CCO[C@H](CNC)C3)n2)c1` (stereo partly shown) [Example 124-1a] the IC50 was < 100 nM.
With `CNCC(O)COc1cccc(-c2nc(N[C@@H]3CCOC3)c(C)c(N3CCOCC3)n2)c1` (stereo partly shown) [Example 3-1] the IC50 was < 100 nM.
With `CNC[C@@H](O)COc1ccc(Cl)c(-c2nc(N[C@@H]3CCOC3)c(C)c(-c3c(C)noc3C)n2)c1` [Example 100-3] the IC50 was < 100 nM.
`CNC[C@@H](O)COc1ccc(Cl)c(-c2nc(-c3c(C)noc3C)c(C)c(N3Cc4cc(C)cnc4C3)n2)c1` [Example 296-3] was tested, and the IC50 was < 100 nM.
With `CNCC(O)COc1cc(Cl)cc(-c2nc(N(C)C3CCOCC3)c(C)c(-n3cccn3)n2)c1` (stereo not shown) [Example 618-1a] the IC50 was < 100 nM.
For `CNCC(O)COc1cccc(-c2nc(NCC3(OC)CCOCC3)c(C)c(-c3c(C)noc3C)n2)c1` (stereo not shown) [Example 300-1a], the IC50 was < 100 nM.
With `CNCC(O)COc1cccc(-c2cc(N(C)C3CCOCC3)nc(C(C)C)n2)c1` (stereo not shown) [Example 6-2] the IC50 was < 100 nM.
With `CNCC(O)COc1cccc(-c2nc(-c3c(C)noc3C)cc(N3CCN(C)CC3)n2)c1` (stereo not shown) [Example 19-1a] the IC50 was < 100 nM.
For `CNCC(O)COc1cccc(-c2nc(-c3c(C)noc3C)c(C)c(N(C)C)n2)c1` (stereo not shown) [Example 308-1a], the IC50 was < 100 nM.
In the case of `CNC[C@@H](O)COc1cccc(-c2nc(-c3c[nH]c4ncncc34)c(C)c(N(C)C3CCOCC3)n2)c1` [Example 526-1a], the IC50 is reported as < 100 nM.
For `CNCC(O)COc1cccc(-c2nc(N3CCNCC3)c(C)c(N(C)C3CCOCC3)n2)c1` (stereo not shown) [Example 560-1a], the IC50 was < 100 nM.
With `CNCC(O)COc1cccc(-c2nc(NCC3(N4CCC4)CCOCC3)c(C)c(-c3c(C)noc3C)n2)c1` (stereo not shown) [Example 301-1a] the IC50 was < 100 nM.
In the case of `CNCC(O)COc1cccc(-c2nc(-c3c(C)noc3C)c(C)c(N3[C@@H]4CC[C@H]3CN(C)C4)n2)c1` (stereo partly shown) [Example 117-1a], the IC50 is reported as < 100 nM.
`CNCC(O)COc1cccc(-c2nc(-c3c(C)noc3C)cc(N(C)c3cncnc3)n2)c1` (stereo not shown) [Example 50-1a] was tested, and the IC50 was < 100 nM.
For `CCOC(=O)N1CC[C@@H](Nc2nc(-c3cccc(OCC(O)CNC)c3)nc(-c3c(C)noc3C)c2C)[C@H](F)C1` (stereo partly shown) [Example 229-1a], the IC50 was < 100 nM.
With `CNC[C@@H](O)COc1ccc(Cl)c(-c2nc(N[C@H]3CO[C@@H](C)C3)c(C)c(-c3c(C)noc3C)n2)c1` [Example 152-3] the IC50 was < 100 nM.
`CNCC(O)COc1cccc(-c2cc(N(C)C3CCOCC3)nc(N(C)C)n2)c1` (stereo not shown) [Example 8-2] was tested, and the IC50 was < 100 nM.
In the case of `CNC[C@@H](O)COc1ccc(Cl)c(-c2nc(NC[C@@H]3CCOC3)c(C)c(-c3c(C)noc3C)n2)c1` [Example 228-3], the IC50 is reported as < 100 nM.
